Literature values as cited in patent US20160022623A1, “COMPOSITION AND USE” (THE UNIVERSITY OF NOTTINGHAM, priority 2013, published 2016).

Columns and labels:
[1] = 24 weeks
[2] = compared to control (euglycaemic hyperinsulinaemia)
[3] = morning following the clamp, overnight fast

SMILES: C[N+](C)(C)C[C@H](O)CC(=O)[O-] [L-carnitine]
- Increase in muscle total carnitine content compared to carbohydrate feeding alone ([1]; 1.36 g L-carnitine with 80 g carbohydrate beverage twice daily): 30%
- Reduction in muscle glycogen utilisation ([1]; low intensity exercise (50% VO2max)): 50%
- Increase in muscle free carnitine availability ([1]; low intensity exercise (50% VO2max), vs Control): 80%
- Decrease in insulin stimulated muscle PDC activation [2]: 30%
- Decrease in muscle lactate accumulation [2]: 40%
- Increase in skeletal muscle total carnitine content (intravenous infusion, 6 h clamp, at rest): 15%
- Increase in muscle glycogen content [3]: 30%
- Increase in muscle long-chain acyl-CoA content [3]: 40%
